From US20210255193A1, “LYSINE REACTIVE PROBES AND USES THEREOF” (The Scripps Research Institute, priority 2017, published 2021)

How the values were obtained:
Experiment in all cases: competitive isoTOP-ABPP
Type in all cases: binding
[1] = target: T1, ARL6IP1 ADP-ribosylation factor-like protein 6-interacting (Homo sapiens, UniProt Q15041); conditions: for isoTOP-ABPP ratio (R) at liganded lysine Q15041_K188: 50 uM, in vitro, sol, 231
T1 construct: isoTOP-ABPP experiments performed in cell lysates (in vitro); endogenous in cells; host or cells: soluble proteome of human cancer cell lines (MDA-MB-231; Ramos and Jurkat also prepared)
How it was run: (§1)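 Fragments at 50 μM (activated esters) or 100 μM (guanidinylating agents) were incubated with 0.5 ml lysate before probe labeling. After 0.1 mM STP-alkyne for 1 h, samples were clicked to isotopically distinct TEV tags, and R taken as DMSO-over-compound MS1 peak-area ratio.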

DTYMK Thymidylate kinase = target: T2, DTYMK Thymidylate kinase (Homo sapiens, UniProt P23919); conditions: for isoTOP-ABPP ratio (R) at liganded lysine P23919_K118: 50 uM, in vitro, sol, 231; for isoTOP-ABPP ratio, lysine P23919_K118: 50 uM_231_sol_in vitro
T2 construct: isoTOP-ABPP experiments performed in cell lysates (in vitro); endogenous in cells; host or cells: soluble proteome of human cancer cell lines (MDA-MB-231; Ramos and Jurkat also prepared)
T2 sequence (P23919 1-212): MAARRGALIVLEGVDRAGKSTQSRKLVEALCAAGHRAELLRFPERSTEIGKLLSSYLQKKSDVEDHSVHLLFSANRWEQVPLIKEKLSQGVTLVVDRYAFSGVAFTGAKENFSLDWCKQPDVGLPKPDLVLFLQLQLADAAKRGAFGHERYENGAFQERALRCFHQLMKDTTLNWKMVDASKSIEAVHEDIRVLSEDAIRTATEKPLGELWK
How it was run: as §1

[2] = target: T3, ETFA Electron transfer flavoprotein subunit alpha, mitochondrial (Homo sapiens, UniProt P13804); conditions: for isoTOP-ABPP ratio (R) at liganded lysine P13804_K139: 50 uM, in vitro, sol, 231
T3 construct: isoTOP-ABPP experiments performed in cell lysates (in vitro); endogenous in cells; host or cells: soluble proteome of human cancer cell lines (MDA-MB-231; Ramos and Jurkat also prepared)
T3 sequence (P13804 20-333): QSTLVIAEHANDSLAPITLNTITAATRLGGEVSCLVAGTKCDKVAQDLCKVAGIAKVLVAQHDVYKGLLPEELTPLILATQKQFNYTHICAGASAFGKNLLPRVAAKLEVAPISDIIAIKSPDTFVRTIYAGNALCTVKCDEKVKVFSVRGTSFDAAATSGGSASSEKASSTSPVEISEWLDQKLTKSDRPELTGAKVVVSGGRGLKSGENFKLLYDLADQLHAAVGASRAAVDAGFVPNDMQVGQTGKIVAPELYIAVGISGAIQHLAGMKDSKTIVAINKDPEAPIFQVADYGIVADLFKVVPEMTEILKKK
T3 sequence (P38117 2-255 partner limits assumed): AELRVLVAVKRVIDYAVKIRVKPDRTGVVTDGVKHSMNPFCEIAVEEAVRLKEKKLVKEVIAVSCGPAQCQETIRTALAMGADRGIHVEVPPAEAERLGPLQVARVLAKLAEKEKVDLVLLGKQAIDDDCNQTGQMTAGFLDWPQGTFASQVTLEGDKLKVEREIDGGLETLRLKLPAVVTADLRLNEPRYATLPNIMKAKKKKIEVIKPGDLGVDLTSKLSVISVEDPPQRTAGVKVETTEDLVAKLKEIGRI
How it was run: as §1

[3] = target: T4, EEF1G Elongation factor 1-gamma (Homo sapiens, UniProt P26641); conditions: for isoTOP-ABPP ratio (R) at liganded lysine P26641_K227: 50 uM, in vitro, sol, 231
T4 construct: isoTOP-ABPP experiments performed in cell lysates (in vitro); endogenous in cells; host or cells: soluble proteome of human cancer cell lines (MDA-MB-231; Ramos and Jurkat also prepared)
How it was run: as §1

T4 sequence (P26641 whole entry): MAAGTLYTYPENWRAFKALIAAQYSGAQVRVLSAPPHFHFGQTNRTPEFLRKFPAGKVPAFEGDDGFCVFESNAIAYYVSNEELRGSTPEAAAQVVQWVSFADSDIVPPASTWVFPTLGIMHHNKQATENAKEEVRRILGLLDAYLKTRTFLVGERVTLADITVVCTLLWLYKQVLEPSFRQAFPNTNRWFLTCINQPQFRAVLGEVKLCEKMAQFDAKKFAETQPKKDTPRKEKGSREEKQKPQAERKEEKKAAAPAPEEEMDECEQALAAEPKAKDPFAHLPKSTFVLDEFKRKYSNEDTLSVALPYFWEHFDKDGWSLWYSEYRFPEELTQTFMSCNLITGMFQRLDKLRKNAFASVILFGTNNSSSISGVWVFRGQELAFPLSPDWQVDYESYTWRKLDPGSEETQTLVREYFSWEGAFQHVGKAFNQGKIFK
T1 sequence (Q15041 whole entry): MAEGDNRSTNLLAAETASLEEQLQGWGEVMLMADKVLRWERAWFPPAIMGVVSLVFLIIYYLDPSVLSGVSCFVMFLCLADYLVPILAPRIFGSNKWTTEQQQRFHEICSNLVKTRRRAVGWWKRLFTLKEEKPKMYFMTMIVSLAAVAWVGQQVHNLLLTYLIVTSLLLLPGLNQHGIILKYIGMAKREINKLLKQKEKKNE

Row | SMILES | isoTOP-ABPP ratio (R) at liganded lysine Q15041_K188 [1] | isoTOP-ABPP ratio (R) at liganded lysine P13804_K139 [2] | isoTOP-ABPP ratio, lysine Q15041_K188 ([1]; 50 uM_231_sol_in vitro) | isoTOP-ABPP ratio, lysine P13804_K139 ([2]; 50 uM_231_sol_in vitro) | further results
1 | O=C(Oc1ccc([N+](=O)[O-])cc1[N+](=O)[O-])c1ccc2ccccc2n1 [fragment 35, 2,4-Dinitrophenyl quinoline-2-carboxylate] | 1.4 | 0.9 |  |  | isoTOP-ABPP ratio (R) at liganded lysine P23919_K118 (DTYMK Thymidylate kinase): 0.9
2 | O=C(CCc1coc2cc(F)ccc2c1=O)Oc1ccc([N+](=O)[O-])cc1[N+](=O)[O-] [fragment 36, 2,4-Dinitrophenyl 3-(7-fluoro-4-oxo-4H-chromen-3-yl)propanoate] | 1.6 | 0.7 |  |  | 
3 | O=C(Oc1ccc([N+](=O)[O-])cc1[N+](=O)[O-])c1ccc(-c2ccccc2)cc1 [fragment 37, 2,4-Dinitrophenyl [1,1′-biphenyl]-4-carboxylate] | 1.8 | 0.9 |  |  | isoTOP-ABPP ratio (R) at liganded lysine P23919_K118 (DTYMK Thymidylate kinase): 0.9
4 | O=C(Oc1ccc([N+](=O)[O-])cc1[N+](=O)[O-])c1ccc(Oc2ccccc2)cc1 [fragment 39, 2,4-Dinitrophenyl 4-phenoxybenzoate] | 1.7 | 0.6 |  |  | isoTOP-ABPP ratio (R) at liganded lysine P23919_K118 (DTYMK Thymidylate kinase): 0.8
5 | O=C(Oc1ccc([N+](=O)[O-])cc1[N+](=O)[O-])c1ccccc1Nc1cccc(C(F)(F)F)c1 [fragment 40, 2,4-Dinitrophenyl 2-((3-(trifluoromethyl)phenyl)amino)benzoate] |  | 0.9 |  |  | 
6 | O=C(Oc1ccc([N+](=O)[O-])cc1[N+](=O)[O-])C(c1ccccc1)(c1ccccc1)c1ccccc1 [fragment 42, 2,4-Dinitrophenyl 2,2,2-triphenylacetate] | 1.1 |  |  |  | isoTOP-ABPP ratio (R) at liganded lysine P26641_K227 [3]: 0.7
7 | CC(=O)Oc1ccc([N+](=O)[O-])cc1[N+](=O)[O-] [fragment 43, 2,4-Dinitrophenyl acetate] | 1.4 |  |  |  | isoTOP-ABPP ratio (R) at liganded lysine P26641_K227 [3]: 2.3
8 | N#Cc1ccc(C(=O)Oc2ccc([N+](=O)[O-])cc2[N+](=O)[O-])cc1 [fragment 44, 2,4-Dinitrophenyl 4-cyanobenzoate] |  |  | 1.1 | 0.9 | isoTOP-ABPP ratio, lysine P26641_K227 ([3]; 50 uM_231_sol_in vitro): 0.8
9 | O=C(CCc1ccc2c(c1)OCO2)Oc1ccc([N+](=O)[O-])cc1[N+](=O)[O-] [fragment 45, 2,4-Dinitrophenyl 3-(benzo[d][1,3]dioxol-5-yl)propanoate] |  |  | 2.2 | 1.0 | isoTOP-ABPP ratio, lysine P26641_K227 ([3]; 50 uM_231_sol_in vitro): 0.6
10 | O=C(ON1C(=O)CCC1=O)c1cc(C(F)(F)F)cc(C(F)(F)F)c1 [fragment 46, 3,5-Bis(trifluoromethyl)benzoic acid NHS ester] |  |  | 1.2 | 0.9 | isoTOP-ABPP ratio, lysine P26641_K227 ([3]; 50 uM_231_sol_in vitro): 0.6
11 | O=C(Oc1c(F)c(F)c(C(F)(F)F)c(F)c1F)c1cc(C(F)(F)F)cc(C(F)(F)F)c1 [fragment 47, 2,3,5,6-Tetrafluoro-4-(trifluoromethyl)phenyl 3,5-bis(trifluoromethyl)benzoate] |  |  | 3.5 | 1.1 | isoTOP-ABPP ratio, lysine P23919_K118 (DTYMK Thymidylate kinase): 0.9
12 | O=C(Oc1c(F)c(F)cc(F)c1F)c1cc(C(F)(F)F)cc(C(F)(F)F)c1 [fragment 48, 2,3,5,6-Tetrafluorophenyl 3,5-bis(trifluoromethyl)benzoate] |  |  | 3.5 | 0.9 | isoTOP-ABPP ratio, lysine P23919_K118 (DTYMK Thymidylate kinase): 0.6
13 | CC(C)(C)OC(=O)N=C(NC(=O)OC(C)(C)C)n1cccn1 [fragment 50, reference compound] |  |  |  |  | isoTOP-ABPP ratio, lysine Q15041_K188 ([1]; 100 uM_231_sol_in vitro): 3.4; isoTOP-ABPP ratio, lysine P26641_K227 ([3]; 100 uM_231_sol_in vitro): 1.2; isoTOP-ABPP ratio, lysine P13804_K139 ([2]; 100 uM_231_sol_in vitro): 1.1
14 | NC(=O)c1cc(C(F)(F)F)cc(C(F)(F)F)c1 [fragment 51, reference compound] |  |  |  | 1.0 | isoTOP-ABPP ratio, lysine P26641_K227 ([3]; 50 uM_231_sol_in vitro): 0.9
